Measurements from patent US20050282743A1, “Molecular interactions in cells” (Arbor Vita Corporation, priority 2001, published 2005).
Where two headings read alike, the source gives them in different places. Blank lines part the entries; values can stand above or below the compound they belong to. Peptide text beside a SMILES is read from it. * marks the point of attachment. Biotin = O=C1N[C@H]2[C@H](CS[C@H]2CCCCC(=O)*)N1

Tests used:
[1] = target: T1, PDZ-domain polypeptide (GST/PDZ fusion protein) (Homo sapiens, UniProt Q12923); experiment: Apparent affinity (Kd) by titration of PL peptide in the G assay; type: binding
T1 construct: made in house; host or cells: E. coli (DH5alpha, BL21 or JM109)
Method in brief: (§1)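 A fixed concentration of GST/PDZ fusion protein, 5 ug/ml by default, was mixed in solution with increasing labeled PL peptide (e.g. 0.1 uM-1 mM). Reaction times ranged from 10 minutes to 2 days at 4-37° C. Complexes were separated from free peptide and detected via the label as in the G assay, apparent affinity coming from the saturating concentration.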

[2] = target: T2, PDZ-domain polypeptide (GST/PDZ fusion protein) (Homo sapiens, UniProt Q5TCQ9); experiment: as above; type: binding
T2 construct: made in house; host or cells: E. coli (DH5alpha, BL21 or JM109)
T2 sequence (Q5TCQ9 1-1481): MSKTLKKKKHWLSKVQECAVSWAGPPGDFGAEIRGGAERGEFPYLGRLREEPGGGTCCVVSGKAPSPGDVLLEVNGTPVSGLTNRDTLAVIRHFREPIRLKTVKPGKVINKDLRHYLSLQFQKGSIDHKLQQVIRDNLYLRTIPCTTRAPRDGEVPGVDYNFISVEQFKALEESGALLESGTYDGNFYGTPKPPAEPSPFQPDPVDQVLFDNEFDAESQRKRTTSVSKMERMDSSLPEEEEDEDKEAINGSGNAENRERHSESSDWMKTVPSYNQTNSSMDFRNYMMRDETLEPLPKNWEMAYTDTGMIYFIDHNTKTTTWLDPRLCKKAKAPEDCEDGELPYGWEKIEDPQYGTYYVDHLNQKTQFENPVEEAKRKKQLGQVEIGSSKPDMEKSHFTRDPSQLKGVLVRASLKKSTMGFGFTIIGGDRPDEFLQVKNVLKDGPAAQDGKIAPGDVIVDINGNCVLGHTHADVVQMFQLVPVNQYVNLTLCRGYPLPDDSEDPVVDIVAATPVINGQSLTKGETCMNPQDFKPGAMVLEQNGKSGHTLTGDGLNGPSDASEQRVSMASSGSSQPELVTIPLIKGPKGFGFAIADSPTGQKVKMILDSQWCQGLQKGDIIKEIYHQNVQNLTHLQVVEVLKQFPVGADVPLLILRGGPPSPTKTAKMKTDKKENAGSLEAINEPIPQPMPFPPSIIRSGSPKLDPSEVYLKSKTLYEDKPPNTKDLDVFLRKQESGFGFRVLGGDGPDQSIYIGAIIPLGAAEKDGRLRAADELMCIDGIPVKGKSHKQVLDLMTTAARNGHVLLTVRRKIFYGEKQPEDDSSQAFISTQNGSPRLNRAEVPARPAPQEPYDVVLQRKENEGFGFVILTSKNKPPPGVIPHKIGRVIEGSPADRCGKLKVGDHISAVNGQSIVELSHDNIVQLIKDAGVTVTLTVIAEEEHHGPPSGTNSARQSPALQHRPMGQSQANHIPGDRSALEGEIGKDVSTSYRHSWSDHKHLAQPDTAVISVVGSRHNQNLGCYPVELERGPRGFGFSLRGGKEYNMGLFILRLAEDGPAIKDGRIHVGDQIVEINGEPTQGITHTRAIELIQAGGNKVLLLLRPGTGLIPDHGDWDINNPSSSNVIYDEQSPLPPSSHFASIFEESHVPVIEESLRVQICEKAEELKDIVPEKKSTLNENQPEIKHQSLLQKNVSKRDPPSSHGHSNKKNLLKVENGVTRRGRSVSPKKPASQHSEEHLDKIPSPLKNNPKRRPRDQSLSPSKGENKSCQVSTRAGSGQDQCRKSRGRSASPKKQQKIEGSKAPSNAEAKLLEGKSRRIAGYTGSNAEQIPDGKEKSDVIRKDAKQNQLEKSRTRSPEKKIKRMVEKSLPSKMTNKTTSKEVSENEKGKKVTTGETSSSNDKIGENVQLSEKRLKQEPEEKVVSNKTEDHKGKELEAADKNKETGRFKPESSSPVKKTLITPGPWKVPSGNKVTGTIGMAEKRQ
Method in brief: as §1

T1 sequence (Q12923 whole entry, the tested form may be a part): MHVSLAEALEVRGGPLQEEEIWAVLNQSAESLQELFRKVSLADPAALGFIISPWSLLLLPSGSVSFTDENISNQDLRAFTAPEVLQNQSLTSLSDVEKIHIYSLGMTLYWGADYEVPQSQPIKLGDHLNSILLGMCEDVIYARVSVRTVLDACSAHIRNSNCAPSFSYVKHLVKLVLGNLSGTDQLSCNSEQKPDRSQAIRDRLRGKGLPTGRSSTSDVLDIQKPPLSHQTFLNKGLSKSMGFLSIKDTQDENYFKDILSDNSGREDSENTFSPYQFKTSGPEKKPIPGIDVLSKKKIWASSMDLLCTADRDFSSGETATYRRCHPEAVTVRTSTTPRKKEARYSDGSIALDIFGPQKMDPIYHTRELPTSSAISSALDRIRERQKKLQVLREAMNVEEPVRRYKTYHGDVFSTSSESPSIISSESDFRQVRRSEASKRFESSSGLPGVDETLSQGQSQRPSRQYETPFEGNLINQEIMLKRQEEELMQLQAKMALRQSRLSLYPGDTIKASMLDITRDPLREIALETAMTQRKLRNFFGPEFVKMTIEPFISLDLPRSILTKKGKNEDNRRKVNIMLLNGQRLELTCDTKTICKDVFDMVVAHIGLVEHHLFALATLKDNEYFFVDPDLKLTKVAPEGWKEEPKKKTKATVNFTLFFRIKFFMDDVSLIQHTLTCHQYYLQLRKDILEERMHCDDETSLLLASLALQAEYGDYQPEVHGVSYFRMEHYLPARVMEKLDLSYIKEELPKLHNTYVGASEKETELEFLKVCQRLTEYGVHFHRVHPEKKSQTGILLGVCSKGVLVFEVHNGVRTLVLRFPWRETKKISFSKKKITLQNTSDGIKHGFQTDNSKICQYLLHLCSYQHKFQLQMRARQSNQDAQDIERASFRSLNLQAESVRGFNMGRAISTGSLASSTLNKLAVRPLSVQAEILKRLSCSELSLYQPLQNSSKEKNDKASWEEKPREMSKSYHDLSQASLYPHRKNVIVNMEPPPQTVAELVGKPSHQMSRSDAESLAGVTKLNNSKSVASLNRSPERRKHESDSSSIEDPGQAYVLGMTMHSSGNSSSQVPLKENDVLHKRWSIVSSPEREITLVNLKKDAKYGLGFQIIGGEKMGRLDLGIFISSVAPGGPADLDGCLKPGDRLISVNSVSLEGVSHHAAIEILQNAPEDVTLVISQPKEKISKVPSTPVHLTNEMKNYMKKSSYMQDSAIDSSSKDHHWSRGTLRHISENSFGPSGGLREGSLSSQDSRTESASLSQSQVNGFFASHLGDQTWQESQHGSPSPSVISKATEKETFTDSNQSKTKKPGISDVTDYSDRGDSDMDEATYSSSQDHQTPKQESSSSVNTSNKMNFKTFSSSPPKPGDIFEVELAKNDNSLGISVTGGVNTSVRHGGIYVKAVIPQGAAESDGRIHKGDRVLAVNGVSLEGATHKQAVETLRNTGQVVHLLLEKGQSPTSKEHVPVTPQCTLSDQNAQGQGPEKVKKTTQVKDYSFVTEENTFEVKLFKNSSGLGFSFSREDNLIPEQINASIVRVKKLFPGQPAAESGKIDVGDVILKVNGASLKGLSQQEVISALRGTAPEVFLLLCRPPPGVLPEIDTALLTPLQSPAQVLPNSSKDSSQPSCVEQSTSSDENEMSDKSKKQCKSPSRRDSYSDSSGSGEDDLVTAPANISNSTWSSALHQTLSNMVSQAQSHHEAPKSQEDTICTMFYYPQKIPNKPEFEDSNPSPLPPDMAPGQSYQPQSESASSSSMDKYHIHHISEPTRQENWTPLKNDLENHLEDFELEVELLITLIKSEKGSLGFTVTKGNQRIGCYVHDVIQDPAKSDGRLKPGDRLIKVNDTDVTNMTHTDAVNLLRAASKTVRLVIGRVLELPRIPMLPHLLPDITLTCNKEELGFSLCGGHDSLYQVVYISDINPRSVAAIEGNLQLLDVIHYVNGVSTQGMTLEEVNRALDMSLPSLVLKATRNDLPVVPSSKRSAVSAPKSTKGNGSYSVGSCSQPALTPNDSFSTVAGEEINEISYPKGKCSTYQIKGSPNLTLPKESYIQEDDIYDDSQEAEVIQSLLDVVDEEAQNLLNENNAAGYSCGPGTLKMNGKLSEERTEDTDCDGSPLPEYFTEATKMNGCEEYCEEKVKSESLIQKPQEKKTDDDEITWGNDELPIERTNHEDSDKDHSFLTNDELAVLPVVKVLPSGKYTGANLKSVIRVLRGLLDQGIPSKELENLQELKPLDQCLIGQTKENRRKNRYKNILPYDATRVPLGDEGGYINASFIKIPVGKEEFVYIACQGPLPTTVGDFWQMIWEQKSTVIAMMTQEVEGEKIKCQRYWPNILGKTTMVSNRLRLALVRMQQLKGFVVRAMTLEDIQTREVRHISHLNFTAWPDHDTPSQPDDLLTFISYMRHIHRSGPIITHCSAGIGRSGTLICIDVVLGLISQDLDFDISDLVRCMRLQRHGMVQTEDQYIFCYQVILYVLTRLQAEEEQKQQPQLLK

SMILES: CC[C@H](C)[C@H](NC(=O)[C@H](CCCCN)NC(=O)[C@@H](NC(=O)[C@H](CO)NC(=O)[C@@H]1CCCN1C(=O)[C@H](Cc1ccccc1)NC(=O)[C@@H](NC(=O)[C@@H](NC(=O)[C@H](CCCNC(=N)N)NC(=O)[C@H](CCC(=O)O)NC(=O)[C@H](CC(C)C)NC(=O)[C@H](CC(C)C)NC(=O)[C@H](CC(C)C)NC(=O)[C@@H](NC(=O)CNC(=O)[C@@H](NC(=O)CCCC[C@@H]1SC[C@@H]2NC(=O)N[C@@H]21)C(C)C)[C@@H](C)O)C(C)C)[C@@H](C)CC)C(C)C)C(=O)N[C@@H](C)C(=O)N[C@H](C(=O)N[C@@H](CC(C)C)C(=O)N[C@H](C(=O)O)C(C)C)[C@@H](C)O [Adenovirus E4 Type9]
Kd ([1]; PDZ PTPL-1, PDZ Domain 2, Protein Optimal Conc 5, read-out: Peptide Optimal Conc (Kd by titration of the PL peptide)): 200 nM
Kd ([2]; PDZ KIAA1634, PDZ Domain 2, Protein Optimal Conc 5, read-out: Peptide Optimal Conc (Kd by titration of the PL peptide)): 150 nM
Kd ([2]; PDZ KIAA1634, PDZ Domain 4, Protein Optimal Conc 5, read-out: Peptide Optimal Conc (Kd by titration of the PL peptide)): 200 nM

Kd ([1]; PDZ PTPL-1, PDZ Domain 4, read-out: Peptide Optimal Conc (Kd by titration of the PL peptide)): 400 nM
Kd ([2]; PDZ KIAA1634, PDZ Domain 1, read-out: Peptide Optimal Conc (Kd by titration of the PL peptide)): 900 nM
SMILES: CC(C)C[C@H](NC(=O)[C@H](Cc1c[nH]c2ccccc12)NC(=O)[C@H](Cc1c[nH]cn1)NC(=O)[C@H](CCCNC(=N)N)NC(=O)[C@H](CC(C)C)NC(=O)[C@@H](NC(=O)[C@H](Cc1ccccc1)NC(=O)[C@H](CCC(N)=O)NC(=O)[C@H](CCCNC(=N)N)NC(=O)[C@@H](NC(=O)[C@H](CCC(=O)O)NC(=O)CNC(=O)[C@H](CCCNC(=N)N)NC(=O)[C@H](CC(=O)O)NC(=O)[C@@H](NC(=O)[C@H](CC(C)C)NC(=O)[C@H](CCC(=O)O)NC(=O)[C@H](CCCNC(=N)N)NC(=O)CCCC[C@@H]1SC[C@@H]2NC(=O)N[C@@H]21)C(C)C)C(C)C)[C@@H](C)O)C(=O)N[C@@H](CCCCN)C(=O)N[C@H](C(=O)O)C(C)C [Dopamine transporter (Na+-dependent)] (Biotin-RELVDRGEVRQFTLRHWLKV-OH; C-terminus assumed)

Kd ([1]; PDZ PTPL-1, PDZ Domain 2, read-out: Peptide Optimal Conc (non-zero value: Kd by titration of the PL peptide)): 6000 nM
Kd ([2]; PDZ KIAA1634, PDZ Domain 2, read-out: Peptide Optimal Conc (non-zero value: Kd by titration of the PL peptide)): 7000 nM
SMILES: CC[C@H](C)[C@H](NC(=O)[C@H](Cc1c[nH]cn1)NC(=O)[C@H](C)NC(=O)[C@H](C)NC(=O)[C@H](CO)NC(=O)[C@@H]1CCCN1C(=O)[C@H](CCCNC(=N)N)NC(=O)[C@H](CC(=O)O)NC(=O)[C@H](CCCCN)NC(=O)[C@@H]1CCCN1C(=O)[C@H](CC(=O)O)NC(=O)[C@H](CCC(=O)O)NC(=O)CCCC[C@@H]1SC[C@@H]2NC(=O)N[C@@H]21)C(=O)N[C@H](C(=O)N[C@@H](CCC(=O)O)C(=O)N[C@@H](C)C(=O)N[C@@H](CC(C)C)C(=O)N[C@@H](CCC(=O)O)C(=O)N[C@H](C(=O)N[C@@H](CC(=O)O)C(=O)N[C@H](C(=O)O)C(C)C)[C@@H](C)O)C(C)C [PDZ-binding kinase (PBK)] (Biotin-EDPKDRPSAAHIVEALETDV-OH; C-terminus assumed)
